Values joined by “and” are separate entries in the source; they are usually repeats but may differ in a detail not shown here. Equal entries are not always repeated. “Also recorded” adds a separate entry of the source.
Legend:
Alkaline Phosphatase = tested on: Alkaline Phosphatase
Experimental: Monitoring the enzymatic hydrolysis of glycolic acid-O-phosphate with Alkaline Phosphatase by NMR: Glycolic acid-O-phosphate (1.1 mg, 7.1 μmol) was added to a buffer containing 0.5 mL of 100 mM KCl, 140 mM Na2CO3 buffer in 0.5 mL of D2O at pD 9.4. […] (0.5 mg, 1 nmol) was added to the solution and ^31P-NMR spectra were taken at various time points to monitor the enzymatic hydrolysis of glycolic acid-O-phosphate to glycolic acid. ^31P-NMR (300 MHz, D2O): glycolic acid-O-phosphate: δ 3.33 ppm, free inorganic phosphate: 2.54 ppm using an internal 85% phosphoric acid standard (set to 0 ppm).

[1] = Single-channel conductance in negatively charged planar bilayers (50% POPE, 50% DOPS); assay type: biochemical; conditions: 0.01 M KCl
Text: The data acquisition boards for both amplifiers were set to a sampling frequency of 15 kHz.

[2] = Single-channel conductance of homodimeric gA pores in planar lipid bilayers made from DiPhyPC (Example 1); assay type: biochemical; conditions: for Single-channel conductance γ: HEPES pH 7.4, DiPhyPC bilayers, slope of I-V curves; for Single-channel conductance γ / γ at pH 7.4: homodimers; for γ at pH 7.4: DiPhyPC bilayers; for γ-ratio to gA-gA: pH 7.4, DiPhyPC
Experimental: Formation of planar lipid bilayers: We formed most planar lipid bilayers with the “folding technique.” We used a Teflon film (Eastern Scientific Inc, pore diameter 0.18-0.25 mm) was pretreated on each side with 2.5 μL of 5% hexadecane in pentane and air dried. This film was mounted using vacuum grease (Dow Corning, High vacuum grease) to a custom made Teflon chamber separating two buffer compartments each with a volume capacity of 4 mL. After adding 1 mL of electrolyte (0.01 M to 1.00 M KCl buffered with HEPES pH 7.4) to each compartment, lipids were spread from a solution in pentane onto the surface of the electrolyte solutions (specifically, 4-6 μL from 25 mg mL-l solution DiPhyPC or from 6.25 mg mL-l each of 50% DOPS and 50% POPE or from 25 mg mL-l DODAP mixed with 25 mg mL-l DiPhyPC in a 1:9 ratio. Three additional milliliters of electrolyte solution were added to each side of the chamber to raise the liquid levels above the aperture. We formed the bilayers from apposition of two monolayers of lipids using the method described by Montal et al. (Proc. Natl. Acad. Sci. U.S.A. 1972, 69, 3561-3566). Briefly, bilayers were obtained by consecutively raising the liquid level in each compartment until the pore was completely covered by electrolyte. If at this point the pore was not closed by a lipid bilayer, then the liquid level in one or both compartments was lowered below the pore level by aspirating electrolyte into a 3 mL syringe, followed by raising the electrolyte solution again.
Planar lipid bilayers were also made with the “painting technique”. We pretreated each side of a pore in a bilayer cup (Warner Instruments, Delrin perfusion cup, volume 1 mL, pore diameter 250 μm) with ˜2 μL of a 25 mg mL-l solution of DiPhyPC in hexane. After adding recording buffer (0.01 M KCl to 1.00 M KCl buffered with HEPES, pH=7.4) to both compartments of the bilayer setup, we “painted” a solution of 20 mg mL-l DiPhyPC in n-decane over the pore by using a paint brush with a fine tip. We followed the thinning of the decane droplet to form a planar bilayer by monitoring the capacitance of the bilayer. After verifying that bilayers were stable for several minutes (in the range of ±200 mV applied voltage) and that the capacitances were above 80-90 pF, gA was added (4-8 μL from 1 ng mL-l in ethanol), derivatives 1 or 2 (2-10 μL from 100 ng mL-l in ethanol), or derivative 3 (4-10 μL from 100 ng mL-l in ethanol) directly to the bilayer chambers.
Ion channel measurements: We performed single channel recordings in “voltage clamp mode” using Ag/AgCl electrodes (Warner Instruments) in each compartment of the bilayer chambers. Data acquisition and storage was carried out using custom software in combination with either an EPC-7 patch clamp amplifier from List Medical Electronic (set at a gain of 100 mV pA-1 and a filter cutoff frequency of 3 kHz) or a Geneclamp 500 amplifier from Axon Instruments (with a CV-5B 100GU headstage, set at a gain of 100 mV pA-1 and filter cutoff frequency of 1 kHz). We used the EPC-7 amplifier for most folded bilayers and the Geneclamp 500 amplifier for most painted bilayers. The data acquisition boards for both amplifiers were set to a sampling frequency of 15 kHz. All current traces shown in the figures were further filtered using a digital Gaussian low-pass filter with a cutoff frequency of 30 Hz. The current traces we used to generate all data that was recorded at applied potentials s 50 mV were filtered at 10 Hz.
We performed the analysis of the single channel current traces by computing histograms of the currents from the original current-time traces with ClampFit 9.2 software from Axon Instruments. From these histograms we extracted the main current values by fitting a Gaussian function to the peaks in the histograms. […] Single channel conductances reported in this paper always refer to the main conductance state (i.e. to the dominant peaks in the current histograms).

[3] = as above; assay type: biochemical; conditions: 20 mM KCl plus 10 mM KOH; for γ at pH 12: DiPhyPC bilayers, homodimers
[4] = target: bovine carbonic anhydrase II (CA, EC 4.2.1.1) (Bos taurus, UniProt P00921); assay: Detection of protein-ligand binding interactions using ion channel measurements; conditions: 12 pM structure 11, 50 μM CA, 140 mM KCl, 10 mM phosphate pH 8.0, 100 mV
Experimental: Benzenesulfonamides are well-known ligands for carbonic anhydrase II (CA, EC 4.2.1.1), a Zn^2+-containing protein.
Detection of protein-ligand binding interactions using ion channel measurements: About 1 μL (from a 100 ng mL^−1 solution in ethanol) of structure 11 (to afford a final concentration of 12 pM of structure 11) was added to each compartment of a bilayer setup containing as electrolyte 140 mM KCl and 10 mM phosphate buffer (pH 8.0). The conductance was recorded at 100 mV.

[5] = Single channel recordings of gA derivatives in planar lipid bilayers (Example 2); assay type: biochemical; conditions: applied potential 100 mV, 20 mM KCl, 0.2 mM HEPES pH 7.4
Experimental: Formation of Planar Lipid Bilayers: Planar lipid bilayers were formed by the “folding technique.” Briefly, a film (e.g., Teflon®, Eastern Scientific Inc, pore diameter 0.1-0.2 mm) that was pretreated on both sides of the pore with 2 μL of 5% (v/v) hexadecane in pentane. This film was mounted using vacuum grease (Dow Corning, High vacuum grease) to a custom-made Teflon chamber separating two buffer compartments each with a volume capacity of 4 mL. After addition of 1 mL of electrolyte (20 mM KCl buffered with 0.2 mM HEPES pH 7.4 or 140 mM KCl buffered with 10 mM phosphate pH 8.0) to each compartment, lipids were spread at the air-water interface of the electrolyte solution in both compartments. Three additional milliliters of the same electrolyte solution were added to each compartment to raise the liquid level above the aperture in the Teflon film. The bilayers were formed on the pore of the Teflon film by aspirating the electrolyte solution into a 3 mL syringe, followed by dispensing the electrolyte solution back into each compartment.
Ion Channel Measurements: Single channel recordings in “voltage clamp mode” were performed using Ag/AgCl pellet electrodes (Warner Instruments) in each compartment of the bilayer setup. Data acquisition and storage was carried out using custom software in combination with an EPC-7 patch clamp amplifier from Heka (set at a gain of 10 mV pA^−1 and a filter cutoff frequency of 3 kHz). The data acquisition board for the amplifier was set to a sampling frequency of 15 kHz. All current traces shown in the figures were further filtered using a digital Gaussian low-pass filter with a cutoff frequency of 4 Hz.
The analysis of single channel current traces was performed by computing histograms of the currents from the original current versus time traces with ClampFit 9.2 software from Axon Instruments. From these histograms, main current values were extracted by fitting a Gaussian function to the peaks in the histograms. […]

bovine carbonic anhydrase II (CA, EC 4.2.1.1), sequence (P00921 whole entry): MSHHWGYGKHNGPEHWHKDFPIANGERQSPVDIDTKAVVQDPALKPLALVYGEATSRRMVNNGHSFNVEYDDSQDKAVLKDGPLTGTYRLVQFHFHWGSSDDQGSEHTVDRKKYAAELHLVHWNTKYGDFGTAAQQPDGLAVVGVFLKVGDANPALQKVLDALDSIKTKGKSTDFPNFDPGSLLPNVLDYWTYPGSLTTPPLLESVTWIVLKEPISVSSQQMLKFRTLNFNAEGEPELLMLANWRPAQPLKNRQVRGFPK

Molecule: O=C(O)COP(=O)(O)O [glycolic acid-O-phosphate]
- time after which the enzymatic hydrolysis was completed (Alkaline Phosphatase; 7.1 μmol substrate, 1 nmol enzyme, 100 mM KCl, 140 mM Na2CO3, pD 9.4): 50 min
- hydrolysis by AP (Alkaline Phosphatase; 31P-NMR spectroscopy): hydrolyzed by AP

Molecule: Gramicidin A [gA, reference compound]
- Single-channel conductance γ in negatively charged bilayers ([1]; 0.1 mM HEPES pH 7.4, listed as gA-gA): 26.9±0.2 pS and 27 pS
- Single-channel conductance γ ([2]; 0.01 M KCl): 2.7 ± 0.5 pS
- γ at pH 7.4 ([2]; 20 mM KCl): 4.5 ± 0.1 pS
- Single-channel conductance γ ([2]; 0.10 M KCl): 10.3 ± 0.1 pS
- Single-channel conductance γ ([2]; 1.00 M KCl, listed as gA-gA): 20 pS and 20.0 ± 0.2 pS
- γ at pH 12 [3]: 7.8 ± 0.2 pS

Molecule: gA-triazole-benzenesulfonamide [structure 11]
- effect of CA on ion channel activity [4]: suppression of ion channel activity; also recorded: reduction of ion channel activity
- effect of CA on ion channel activity ([4]; listed as gA-sulfonamide 11): reduces the observed transmembrane ion flux

Molecule: gramicidamine
- ion channel activity in planar lipid bilayers [5]: retained well-defined ion channel activity
- conductance compared with gA-gA at pH 7.4 ([2]; 20 mM KCl, DiPhyPC): significantly less
- γ at pH 7.4 ([2]; 20 mM KCl): 3.8 ± 0.2 pS
- conductance compared with gA-gA at pH 12 ([3]; DiPhyPC): indistinguishable
- γ at pH 12 [3]: 7.7 ± 0.9 pS

Molecule: gramicidyl taurinyl succinate [compound 1]
- Single-channel conductance γ in negatively charged bilayers ([1]; 0.1 mM HEPES pH 7.4): 26.8±0.9 pS
- Single-channel conductance γ ([2]; 0.01 M KCl): 3.5 ± 0.3 pS
- γ-ratio to gA-gA ([2]; 0.01 M KCl): about 1.3
- γ-ratio to gA-gA ([2]; 0.01 M KCl, listed as 1-1): 1.3
- Single-channel conductance γ ([2]; 0.10 M KCl): 11.0 ± 0.4 pS
- γ-ratio to gA-gA ([2]; 0.10 M KCl): 1.1
- Single-channel conductance γ ([2]; 1.00 M KCl): 19.5 ± 0.4 pS
- γ-ratio to gA-gA ([2]; 1.00 M KCl): 1.0
- difference in single channel conductance compared to gA ([2]; approximately 0.10 M KCl): 7%
- difference in single channel conductance compared to gA ([2]; approximately 1.00 M KCl): 3%
